Reference: US8192962B2, “Processes for detecting toxic substances” (Daikin Industries, Ltd., priority 2001, dated 2012)

Tested on: Unknown protein yeast genes
Test: DNA chip mRNA expression in yeast, unknown protein yeast genes (Table 1)
Format: cell-based, Saccharomyces cerevisiae S288C
Method in brief: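 First, S288C yeast grown in YPD at 25° C. are dosed in log phase with one toxicant (growth-inhibiting, not lethal) for 2 h. Next, total RNA is extracted and poly(A) mRNA isolated and reverse-transcribed with Cy3/Cy5-dUTP. Finally, whole-genome chip fluorescence is read relative to unexposed cells.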

SMILES: CN(C)C(=S)SSC(=S)N(C)C [(10), Tetramethylthiuram disulfide]
- The level of expressed mRNA in the presence of chemical substance/The level of expressed mRNA in the absence of chemical substance (yeast gene YKL086W, incubated two hours with chemical substance): 20.5
- The level of expressed mRNA in the presence of chemical substance/The level of expressed mRNA in the absence of chemical substance (yeast gene YKL151C, incubated two hours with chemical substance): 3.5
- The level of expressed mRNA in the presence of chemical substance/The level of expressed mRNA in the absence of chemical substance (yeast gene YKL153W, incubated two hours with chemical substance): 1.4
- The level of expressed mRNA in the presence of chemical substance/The level of expressed mRNA in the absence of chemical substance (yeast gene YKL195W, incubated two hours with chemical substance): 2.1
- The level of expressed mRNA in the presence of chemical substance/The level of expressed mRNA in the absence of chemical substance (yeast gene YKR011C): 4.4
- The level of expressed mRNA in the presence of chemical substance/The level of expressed mRNA in the absence of chemical substance (yeast gene YKR091W, incubated two hours with chemical substance): 1.6
- The level of expressed mRNA in the presence of chemical substance/The level of expressed mRNA in the absence of chemical substance (yeast gene YLR054C, incubated two hours with chemical substance): 1.1
- The level of expressed mRNA in the presence of chemical substance/The level of expressed mRNA in the absence of chemical substance (yeast gene YLR149C, incubated two hours with chemical substance): 5.2
- The level of expressed mRNA in the presence of chemical substance/The level of expressed mRNA in the absence of chemical substance (yeast gene YLR152C, incubated two hours with chemical substance): 1.1
- The level of expressed mRNA in the presence of chemical substance/The level of expressed mRNA in the absence of chemical substance (yeast gene YLR194C, incubated two hours with chemical substance): 1.1
- The level of expressed mRNA in the presence of chemical substance/The level of expressed mRNA in the absence of chemical substance (yeast gene YLR324W, incubated two hours with chemical substance): 1.4
- The level of expressed mRNA in the presence of chemical substance/The level of expressed mRNA in the absence of chemical substance (yeast gene YLR350W, incubated two hours with chemical substance): 1.4
- The level of expressed mRNA in the presence of chemical substance/The level of expressed mRNA in the absence of chemical substance (yeast gene YLR387C, incubated two hours with chemical substance): 3.0
- The level of expressed mRNA in the presence of chemical substance/The level of expressed mRNA in the absence of chemical substance (yeast gene YLR460C): 31.6
- The level of expressed mRNA in the presence of chemical substance/The level of expressed mRNA in the absence of chemical substance (yeast gene YML117W, incubated two hours with chemical substance): 1.4
- The level of expressed mRNA in the presence of chemical substance/The level of expressed mRNA in the absence of chemical substance (yeast gene YMR009W, incubated two hours with chemical substance): 2.2
- The level of expressed mRNA in the presence of chemical substance/The level of expressed mRNA in the absence of chemical substance (yeast gene YMR067C, incubated two hours with chemical substance): 3.5
- The level of expressed mRNA in the presence of chemical substance/The level of expressed mRNA in the absence of chemical substance (yeast gene YMR090W): 6.1
- The level of expressed mRNA in the presence of chemical substance/The level of expressed mRNA in the absence of chemical substance (yeast gene YMR095C, incubated two hours with chemical substance): 1.4
- The level of expressed mRNA in the presence of chemical substance/The level of expressed mRNA in the absence of chemical substance (yeast gene YMR097C, incubated two hours with chemical substance): 2.1
- The level of expressed mRNA in the presence of chemical substance/The level of expressed mRNA in the absence of chemical substance (yeast gene YMR102C, incubated two hours with chemical substance): 2.6
- The level of expressed mRNA in the presence of chemical substance/The level of expressed mRNA in the absence of chemical substance (yeast gene YMR107W, incubated two hours with chemical substance): 17.1
- The level of expressed mRNA in the presence of chemical substance/The level of expressed mRNA in the absence of chemical substance (yeast gene YMR180C, incubated two hours with chemical substance): 2.2
- The level of expressed mRNA in the presence of chemical substance/The level of expressed mRNA in the absence of chemical substance (yeast gene YMR184W, incubated two hours with chemical substance): 0.9
- The level of expressed mRNA in the presence of chemical substance/The level of expressed mRNA in the absence of chemical substance (yeast gene YMR191W, incubated two hours with chemical substance): 3.5
- The level of expressed mRNA in the presence of chemical substance/The level of expressed mRNA in the absence of chemical substance (yeast gene YMR295C, incubated two hours with chemical substance): 0.8
- The level of expressed mRNA in the presence of chemical substance/The level of expressed mRNA in the absence of chemical substance (yeast gene YMR316W, incubated two hours with chemical substance): 3.0
- The level of expressed mRNA in the presence of chemical substance/The level of expressed mRNA in the absence of chemical substance (yeast gene YNL044W, incubated two hours with chemical substance): 0.8
- The level of expressed mRNA in the presence of chemical substance/The level of expressed mRNA in the absence of chemical substance (yeast gene YNL074C, incubated two hours with chemical substance): 2.0
- The level of expressed mRNA in the presence of chemical substance/The level of expressed mRNA in the absence of chemical substance (yeast gene YNL092W, incubated two hours with chemical substance): 1.5
- The level of expressed mRNA in the presence of chemical substance/The level of expressed mRNA in the absence of chemical substance (yeast gene YNL115C, incubated two hours with chemical substance): 1.9
- The level of expressed mRNA in the presence of chemical substance/The level of expressed mRNA in the absence of chemical substance (yeast gene YNL156C, incubated two hours with chemical substance): 1.9
- The level of expressed mRNA in the presence of chemical substance/The level of expressed mRNA in the absence of chemical substance (yeast gene YNL234W, incubated two hours with chemical substance): 3.3
- The level of expressed mRNA in the presence of chemical substance/The level of expressed mRNA in the absence of chemical substance (yeast gene YNL281W, incubated two hours with chemical substance): 1.6
- The level of expressed mRNA in the presence of chemical substance/The level of expressed mRNA in the absence of chemical substance (yeast gene YNL305C, incubated two hours with chemical substance): 2.1
- The level of expressed mRNA in the presence of chemical substance/The level of expressed mRNA in the absence of chemical substance (yeast gene YNR068C, incubated two hours with chemical substance): 14.4
- The level of expressed mRNA in the presence of chemical substance/The level of expressed mRNA in the absence of chemical substance (yeast gene YOL032W, incubated two hours with chemical substance): 3.0
- The level of expressed mRNA in the presence of chemical substance/The level of expressed mRNA in the absence of chemical substance (yeast gene YOL036W, incubated two hours with chemical substance): 2.8
- The level of expressed mRNA in the presence of chemical substance/The level of expressed mRNA in the absence of chemical substance (yeast gene YOL047C, incubated two hours with chemical substance): 2.3
- The level of expressed mRNA in the presence of chemical substance/The level of expressed mRNA in the absence of chemical substance (yeast gene YOL071W, incubated two hours with chemical substance): 2.3
- The level of expressed mRNA in the presence of chemical substance/The level of expressed mRNA in the absence of chemical substance (yeast gene YOL082W, incubated two hours with chemical substance): 2.0
- The level of expressed mRNA in the presence of chemical substance/The level of expressed mRNA in the absence of chemical substance (yeast gene YOL083W, incubated two hours with chemical substance): 2.3
- The level of expressed mRNA in the presence of chemical substance/The level of expressed mRNA in the absence of chemical substance (yeast gene YOL117W, incubated two hours with chemical substance): 4.1
- The level of expressed mRNA in the presence of chemical substance/The level of expressed mRNA in the absence of chemical substance (yeast gene YOL131W, incubated two hours with chemical substance): 8.1
- The level of expressed mRNA in the presence of chemical substance/The level of expressed mRNA in the absence of chemical substance (yeast gene YOL150C): 8.3
- The level of expressed mRNA in the presence of chemical substance/The level of expressed mRNA in the absence of chemical substance (yeast gene YOL162W, incubated two hours with chemical substance): 6.8
- The level of expressed mRNA in the presence of chemical substance/The level of expressed mRNA in the absence of chemical substance (yeast gene YOR019W, incubated two hours with chemical substance): 7.1
- The level of expressed mRNA in the presence of chemical substance/The level of expressed mRNA in the absence of chemical substance (yeast gene YOR197W, incubated two hours with chemical substance): 0.7
- The level of expressed mRNA in the presence of chemical substance/The level of expressed mRNA in the absence of chemical substance (yeast gene YOR338W): 3.5
- The level of expressed mRNA in the presence of chemical substance/The level of expressed mRNA in the absence of chemical substance (yeast gene YPL087W, incubated two hours with chemical substance): 2.2
- The level of expressed mRNA in the presence of chemical substance/The level of expressed mRNA in the absence of chemical substance (yeast gene YPL196W, incubated two hours with chemical substance): 2.8
- The level of expressed mRNA in the presence of chemical substance/The level of expressed mRNA in the absence of chemical substance (yeast gene YPL206C, incubated two hours with chemical substance): 1.1
- The level of expressed mRNA in the presence of chemical substance/The level of expressed mRNA in the absence of chemical substance (yeast gene YPL222W, incubated two hours with chemical substance): 3.4
- The level of expressed mRNA in the presence of chemical substance/The level of expressed mRNA in the absence of chemical substance (yeast gene YPR023C, incubated two hours with chemical substance): 2.8
- The level of expressed mRNA in the presence of chemical substance/The level of expressed mRNA in the absence of chemical substance (yeast gene YPR151C, incubated two hours with chemical substance): 9.5
